Data as given in patent US11415579B2, “Assay for measuring a rate of reaction between a target and a ligand candidate” (Imperial College Innovations Ltd., priority 2016, dated 2022).

What was measured:
[1] = molecular target: T1, Cdk2(S181C) (C177A) (Homo sapiens, UniProt P24941, C177A/S181C); test: Kinetic thiol consumption assay with Cdk2 mutant S181C; format: binding; design: key to Rate enhancement, Cdk2 S181C: rate constant with Cdk2 ÷ rate constant with model thiol (fold); details: additional mutation C177A; for Rate constant with Cdk2 S181C: Protein: Cdk2, cysteine position S181C, in h^-1
T1 construct: poly-histidine; made in house; host or cells: E. coli
Method in brief: (§1)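 5 μM thiol, degassed phosphate pH 8, 2% v/v immobilized TCEP beads; 1 h RT; fluorescence ex 380/em 470 nm; normalized vs DMSO/thiol-only; first-order exponential decay fit → rate constant; Cdk2 k / model-thiol k = rate enhancement per acrylamide.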

[2] = molecular target: T2, Cdk2(C177A, F80C) (Homo sapiens, UniProt P24941, C177A/F80C); test: Kinetic thiol consumption assay with Cdk2 mutant F80C, incl. kobs versus concentration (Kd, k2); format: binding; design: key to Rate enhancement, Cdk2 F80C: Cdk2 rate constant divided by model-thiol rate constant; details: additional mutation C177A; for Rate constant with Cdk2 F80C: Protein: Cdk2, cysteine position F80C, in h^-1
T2 construct: poly-histidine; made in house; host or cells: E. coli
Method in brief: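 His-tagged Cdk2(C177A/F80C) from E. coli or model thiol, 5 μM in degassed phosphate buffer pH 8 with TCEP beads, reacted with acrylamide ligands; fluorescence (ex/em 380/470 nm) normalized to DMSO control and fitted to first-order decay for kobs. Kd and k2 obtained from hyperbolic fit of kobs versus ligand concentration.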

[3] = molecular target: T3, human cyclin-dependent kinase 2 (Cdk2) (Homo sapiens, UniProt P24941); test: Kinetic thiol consumption assay with wild type Cdk2 (C177); format: binding; design: key to Rate enhancement, Cdk2 WT: k(Cdk2) divided by k(model thiol); Rate constant with Cdk2 (k(Cdk2)): unit not given here; details: for Rate constant with Cdk2 (k(Cdk2)): 500 μM ligand, 5 μM thiol, phosphate buffer pH 8; for Rate enhancement, Cdk2 WT: no additional mutations; for Rate constant with Cdk2 WT: Protein: Cdk2, cysteine position WT, in h^-1; for k(Cdk2)/k(Cdk2_mut) rate enhancement: model thiol Cdk2[C177A, F80C, K278C]; for k(Cdk2)/k(GSH) rate enhancement: model thiol glutathione
T3 construct: poly-histidine; made in house; host or cells: E. coli
Method in brief: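 Rate enhancement: first-order decay constant with Cdk2 over that with a model thiol. Thiols (5 μM, degassed phosphate buffer pH 8, immobilized TCEP) were incubated with acrylamides at room temperature, and thiol consumption followed by fluorescence at 380/470 nm, normalized to DMSO control. Cdk2 was His-tagged, E. coli-expressed, with one surface cysteine (C177).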

[4] = Kinetic thiol consumption assay with model thiol glutathione; format: physicochemical; design: Rate constant with glutathione (k(GSH)): unit not given here; details: for Rate constant with glutathione (k(GSH)): 500 μM ligand, 5 μM thiol, phosphate buffer pH 8; for Rate constant with Glutathione: Protein: Glutathione, cysteine position NA, in h-1
Method in brief: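 GSH 5 μM, degassed phosphate buffer pH 8, TCEP beads 2% v/v; acrylamide added; RT, 1 h; fluorescence ex/em 380/470 nm; normalized to DMSO/thiol control; k from first-order exponential decay fit.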

[5] = molecular target: T4, Cdk2(R122C) (C177A) (Homo sapiens, UniProt P24941, C177A/R122C); test: Kinetic thiol consumption assay with Cdk2 mutant R122C; format: binding; design: key to Rate enhancement, Cdk2 R122C: rate constant with Cdk2 ÷ rate constant with model thiol (fold); details: additional mutation C177A; for Rate constant with Cdk2 R122C: Protein: Cdk2, cysteine position R122C, in h-1
T4 construct: poly-histidine; made in house; host or cells: E. coli
Method in brief: as §1

[6] = molecular target: T5, Cdk2[C177A, F80C, K278C] (Homo sapiens, UniProt P24941, C177A/F80C/K278C); test: Kinetic thiol consumption assay with mutant Cdk2 as model thiol; format: binding; design: unit not given here; details: 500 μM ligand, 5 μM thiol, phosphate buffer pH 8
T5 construct: poly-histidine; made in house; host or cells: E. coli
Description: A library of 120 acrylamides was screened against a) human cyclin-dependent kinase 2 (Cdk2, which contains one surface exposed cysteine residue—C177), prepared by cloning cDNA into the pRSETA bacterial expression vector to generate a poly-histidine tagged Cdk2 fusion that was purified from E. coli using standard techniques, and b) a model thiol (specific details are given below). The structures of these 120 acrylamides are set out in Table 1, above.
To wells containing 150 μL thiol (Cdk2 or model thiol) (5 μM) in degassed phosphate buffer (pH 8) was added immobilized TCEP beads (2% v/v).
After incubation of the fluorescence plates for 1 hour at room temperature, fluorescence measurements (excitation/emission of 380/470 nm) were taken on a PerkinElmer EnVision multilabel plate reader and processed with EnVision Workstation version 1.12.
Fluorescence measurements were normalized against a DMSO/thiol only control and plotted against time.
Rate constants were calculated using GraphPad software Prism version 6 by fitting a first order exponential decay to the data. The rate constant for each acrylamide with Cdk2 was divided by the rate constant for that fragment with the model thiol to provide the rate enhancement for each ligand candidate.
The model thiol used in Example 2 is a mutant form of human Cdk2 (C177A, F80C, K278C) which contains two engineered surface exposed cysteine residues. Mutations were introduced by site-directed mutagenesis and the resulting cDNA was cloned into the pRSETA bacterial expression vector to generate a poly-histidine tagged Cdk2 fusion that was purified from E. coli using standard techniques.

[7] = molecular target: T6, Cdk2(H71C) (C177A) (Homo sapiens, UniProt P24941, C177A/H71C); test: Kinetic thiol consumption assay with Cdk2 mutant H71C; format: binding; design: key to Rate enhancement, Cdk2 H71C: rate constant with Cdk2 ÷ rate constant with model thiol (fold); details: additional mutation C177A; for Rate constant with Cdk2 H71C: Protein: Cdk2, cysteine position H71C, in h^-1
T6 construct: poly-histidine; made in house; host or cells: E. coli
Method in brief: as §1

[8] = molecular target: T7, Cdk2(N272C) (C177A) (Homo sapiens, UniProt P24941, C177A/N272C); test: Kinetic thiol consumption assay with Cdk2 mutant N272C; format: binding; design: key to Rate enhancement, Cdk2 N272: rate constant with Cdk2 ÷ rate constant with model thiol (fold); details: for Rate enhancement, Cdk2 N272: Cdk2 N272, additional mutation C177A; for Rate constant with Cdk2 N272C: Protein: Cdk2, cysteine position N272C, additional mutation C177A, in h^-1
T7 construct: poly-histidine; made in house; host or cells: E. coli
Method in brief: as §1

[9] = molecular target: T8, Cdk2(S276C) (C177A) (Homo sapiens, UniProt P24941, C177A/S276C); test: Kinetic thiol consumption assay with Cdk2 mutant S276C; format: binding; design: key to Rate enhancement, Cdk2 S276C: rate constant with Cdk2 ÷ rate constant with model thiol (fold); details: additional mutation C177A; for Rate constant with Cdk2 S276C: Protein: Cdk2, cysteine position S276C, in h^-1
T8 construct: poly-histidine; made in house; host or cells: E. coli
Method in brief: as §1

[10] = molecular target: T9, Cdk2(T182C) (C177A) (Homo sapiens, UniProt P24941, C177A/T182C); test: Kinetic thiol consumption assay with Cdk2 mutant T182C; format: binding; design: key to Rate enhancement, Cdk2 T182C: rate constant with Cdk2 ÷ rate constant with model thiol (fold); details: additional mutation C177A; for Rate constant with Cdk2 T182C: Protein: Cdk2, cysteine position T182C, in h^-1
T9 construct: poly-histidine; made in house; host or cells: E. coli
Method in brief: as §1

Row | Structure (SMILES) | Rate enhancement, Cdk2 S181C [1] | Rate constant with Cdk2 S181C [1] | Rate enhancement, Cdk2 F80C [2] | Rate constant with Cdk2 F80C [2] | Rate constant with Cdk2 (k(Cdk2)) [3] | Rate enhancement, Cdk2 WT [3] | Rate constant with Cdk2 WT [3] | k(Cdk2)/k(Cdk2_mut) rate enhancement [3] | k(Cdk2)/k(GSH) rate enhancement [3] | Rate constant with glutathione (k(GSH)) [4] | Rate constant with Glutathione [4] | Rate enhancement, Cdk2 R122C [5] | Rate constant with Cdk2[C177A, F80C, K278C] (k(Cdk2_mut)) [6] | Rate enhancement, Cdk2 H71C [7] | Rate constant with Cdk2 H71C [7] | Rate enhancement, Cdk2 N272 [8] | Rate enhancement, Cdk2 S276C [9] | Rate constant with Cdk2 S276C [9] | Rate enhancement, Cdk2 T182C [10] | Rate constant with Cdk2 T182C [10] | further results
1 | C=CC(=O)N1CCC(c2nc3ccccc3[nH]2)CC1 [EL-1152] | 0.9565 | 0.005678 | 0.816 | 0.004844 | 0.00612 | 1.186 | 0.007039 | 1.055 | 1.009 | 0.00606 | 0.005936 | 0.7476 | 0.0058 | 0.6643 | 0.003943 | 0.326 | 2.027 | 0.01203 | 3.834 | 0.02276 | Rate constant with Cdk2 R122C [5]: 0.004438; Rate constant with Cdk2 N272C [8]: 0.001935
2 | C=CC(=O)NCc1ccc(OC)cc1 [BN-63] | 0.4386 | 0.0009 | 0.5692 | 0.001168 | 0.00194 | 1.461 | 0.002998 | 0.5882 | 0.9011 | 0.00215 | 0.002052 | 0 | 0.0033 | 3.1842E−11 | 6.534E−14 | 0.5 | 0.393 | 0.0008064 | 0.7193 | 0.001476 | Rate constant with Cdk2 N272C [8]: 0.001026
3 | C=CC(=O)NCCc1c[nH]c2ccccc12 [EL-1174] | 0.5058 | 0.002125 | 3.249 | 0.01365 | 0.0009 | 0.3449 | 0.001449 | 0.131 | 0.3555 | 0.00253 | 0.004201 | 0.532 | 0.00688 | 0.8572 | 0.003601 | 0 | 0.716 | 0.003008 | 1.377 | 0.005783 | Rate constant with Cdk2 R122C [5]: 0.002235
4 | C=CC(=O)N1CCN(c2ccccc2[N+](=O)[O-])CC1 [EL-1134] | 1.601 | 0.007065 | 3.947 | 0.01742 | 0.0071 | 1.609 | 0.007099 | 0.3385 | 1.597 | 0.00444 | 0.004413 | 1.145 | 0.02097 | 4.627 | 0.02042 | 1.119 | 1.414 | 0.006242 | 14.4 | 0.06354 | Rate constant with Cdk2 R122C [5]: 0.005054; Rate constant with Cdk2 N272C [8]: 0.004938
